≈ marks a conversion by molar mass, not a printed value. Where two headings read alike, the source gives them in different places.
How the values were obtained:
HIV (HTLV-IIIB strain) = experiment: microbe, parasite or virus in culture; assay type: cell-based
Procedure: The anti-HIV activity of each of the compounds produced in Examples was assayed by the following procedures. […] On the other hand, the test compound was diluted with the above culture medium to predetermined concentrations and distributed in 50 μl aliquots into a 96-well microtiter plate. Then, d suspension of MT-4 cells was added in 100 μl aliquots (3.5×10^4 cells per well) and then the above HIV-containing supernatant diluted with the above culture medium was added, 50 μl (60 pfu (plaque forming units)) per well. (2) The plate was incubated in a CO2 incubator at 37° C. for 5 days. Then, 30 μl/well of 3-(4,5-dimethyl thiazol-2-yl)-2,5-diphenyltetrazolium bromide (MTT) (5 mg/ml PBS) was added and the incubation was further continued for 1 hour. The surviving cells reducing MTT yield precipitation of formazan. Therefore, 150 μl portions of the culture supernatant were removed from all wells and, instead, 150 μl of a solution (10% Triton X-100 and 0.4% (v/v) HCl-added isopropyl alcohol) was added. The plate was shaken on a plate mixer to dissolve the formazan.

[1] = cytotoxicity in MT-4 cells (MTT, culture medium in place of HIV); assay type: cell-based; settings: human
Procedure: The anti-HIV activity of each of the compounds produced in Examples was assayed by the following procedures. (1) Human T cell line MOLT-4 clone 8 persistently infected by HIV (HTLV-IIIB strain) was cultured in an RPMI-1640 medium supplemented with 10% fetal calf serum, the culture supernatant was filtered, and the titer of virus was determined; the culture supernatant was stored at -80° C. On the other hand, the test compound was diluted with the above culture medium to predetermined concentrations and distributed in 50 μl aliquots into a 96-well microtiter plate. Then, d suspension of MT-4 cells was added in 100 μl aliquots (3.5×10^4 cells per well) and then the above HIV-containing supernatant diluted with the above culture medium was added, 50 μl (60 pfu (plaque forming units)) per well. (2) The plate was incubated in a CO2 incubator at 37° C. for 5 days. Then, 30 μl/well of 3-(4,5-dimethyl thiazol-2-yl)-2,5-diphenyltetrazolium bromide (MTT) (5 mg/ml PBS) was added and the incubation was further continued for 1 hour. The surviving cells reducing MTT yield precipitation of formazan. Therefore, 150 μl portions of the culture supernatant were removed from all wells and, instead, 150 μl of a solution (10% Triton X-100 and 0.4% (v/v) HCl-added isopropyl alcohol) was added. The plate was shaken on a plate mixer to dissolve the formazan. The OD of formazan was measured with a microreader at 560 nm arid 690 nm (reference wavelength) and the result was compared with that of control.
The cytotoxicity of each of the compounds produced in Examples was assayed. In place of the HIV-containing supernatant (the virus suspension) in (1) in Test Example 1, 50 μl of the culture medium was added to each well, and the cytotoxicity was determined in the same manner as that for (2) in Test Example 1.

[2] = molecular target: T1, purified recombinant HIV-1 reverse transcriptase (Human immunodeficiency virus type 1 group M subtype B, UniProt P04585); experiment: reverse transcriptase inhibition, poly(rA)/(dT) template primer, [3H]dTTP uptake; assay type: biochemical
T1 construct: purified recombinant HIV-1 reverse transcriptase; made in house; host or cells: Escherichia coli
Procedure: The reverse transcriptase activity of each of the compounds synthesized in Examples was assayed by the following procedures.
Using the purified recombinant HIV-1 reverse transcriptase RT, E.C. 2.7.7.49) obtained by expression in Escherichia Coli, a 96-well plate assay system was established for assaying a large number of samples. The RT inhibitory activity was determined as follows. To 11 μl of a solution of the test inhibitor in water or MSO was added 100 μl of a reaction mixture (0.1 unit/100 μl RT, 50 mM Tris-HCl pH 8.3, 150 mM KCl, 10 mM MgCl2, 3 mM dithiothreitol, 0.1% Nonidet P-40, 10 μg/ml. poly(rA) and 10 μg/ml (dT)12-1.8 as template and primer, and 4 μM dTTP, 1 μCi/100 μl [^3 H]dTTP as substrate) and the mixture was incubated at 37° C. for 1 hour and, then, immediately cooled on ice. Using a cell harvester, the reaction mixture was transferred to a DEAE-filter mat (LKB-Pharmacia). Then, using the wash line of the cell harvester, the cells were washed twice with 5% Na2 HPO4 /H2 O and once with water and dried at 95° C. for 15 minutes. […] The inhibitory activity was expressed in percent inhibition relative to the uptake on water or DMSO control.

[3] = Human immunodeficiency virus 1, IIIB, MT4, 120 h, MT-4 cells, 60 pfu HIV per well, 37° C., 5 days, MTT, Tables 1 and 2, read-out: EC50
[4] = MT-4 cells, no virus, 37° C., 5 days, MTT, Table 3, read-out: CC50
[5] = Human immunodeficiency virus 1, IIIB, MT4, 120 h

Row | Compound | EC50 (HIV (HTLV-IIIB strain); [3]) | CC50 at 120 h [1, 4] | IC50 [2] | CC50 at 120 h ([1]; mt-4 cells) | EC50 (HIV (HTLV-IIIB strain); [5]) | IC50 ([2]; read-out: RT IC50, pH 8.3, 37° C., 1 hour, Tables 5 and 6) | EC50 (HIV (HTLV-IIIB strain); MT-4 cells, 60 pfu HIV per well, 37° C., 5 days, MTT, Tables 1 and 2) | RT IC50 ([2]; pH 8.3, 37° C., 1 hour, Tables 5 and 6)
1 | CC(C)c1nc(CN)n(C)c1Sc1cccc([N+](=O)[O-])c1 [Compound I-67, 2-aminomethyl-4-isopropyl-1-methyl-5-(3-nitrophenylthio)-1H-imidazole] | 0.13 to 0.25 µg/mL (≈ 0.424 to 0.816 µM) | 12.5 to 25 µg/mL (≈ 40.8 to 81.6 µM) | 17.6 µM |  |  |  |  | 
2 | CNC(=S)NCc1nc(C(C)C)c(Sc2cc(Cl)cc(Cl)c2)n1C [Compound I-89, 5-(3,5-dichlorophenylthio)-4-isopropyl-1-methyl-2-(N-methylthiocarbamoyl)aminomethyl-1H-imidazole] | 1 µg/mL (≈ 2.48 µM) | 1 to 10 µg/mL (≈ 2.48 to 24.8 µM) | > 248 µM |  |  |  |  | 
3 | CC(C)c1nc(CO)n(CCCCCc2ccccc2)c1Sc1cc(Cl)cc(Cl)c1 [Compound I-124, 5-(3,5-dichlorophenylthio)-2-hydroxymethyl-4-isopropyl-1-(5-phenylpentyl)-1H-imidazole] | 0.25 µg/mL (≈ 0.539 µM) |  | > 216 µM | 12.5 µg/mL (≈ 27 µM) |  |  |  | 
4 | CC(C)c1nc(CC(=O)O)n(C)c1Sc1cc(Cl)cc(Cl)c1 [Compound I-80, [5-(3,5-dichlorophenylthio)-4-isopropyl-1-nethyl-1H-imidazol-2-yl]acetic acid] | 0.5 to 1 µg/mL (≈ 1.39 to 2.78 µM) | 10 to 100 µg/mL (≈ 27.8 to 278 µM) | 3.06 µM |  |  |  |  | 
5 | CCn1c(CO)nc(C(C)C)c1Sc1cccc(F)c1 [Compound I-37, [1-ethyl-5-(3-fluorophenylthio)-4-isopropyl-1H-imidazol-2-yl]methanol] | 0.0005 µg/mL (≈ 0.0017 µM) | 25 µg/mL (≈ 84.9 µM) | 0.204 µM |  |  |  |  | 
6 | CC(C)c1nc(CO)n(CCCCCCc2ccccc2)c1Sc1cc(Cl)cc(Cl)c1 [Compound I-125, 5-(3,5-dichlorophenylthio)-2-hydroxylmethyl-4-isopropyl-1-(6-phenlylhexyl)-1H-imidazole] | 0.5 to 1 µg/mL (≈ 1.05 to 2.09 µM) |  | > 209 µM | 12.5 µg/mL (≈ 26.2 µM) |  |  |  | 
7 | CC(C)c1nc(CO)n(Cc2ccc[nH]c2=O)c1Sc1cc(Cl)cc(Cl)c1 [Compound 116b, 5-(3,5-dichlorophenyl-thio)-2-hydroxymethyl-1-(2(1H)-pyridon-3-ylmethyl)-4-isopropyl-1H-imidazole] | 0.016 µg/mL (≈ 0.0377 µM) |  | 7.54 µM | 50 µg/mL (≈ 118 µM) |  |  |  | 
8 | CC(=O)OCCOCc1nc(C(C)C)c(Sc2cc(Cl)cc(Cl)c2)n1C [Compound I-60, 2-{[5-(3,5-dichlorophenylthio)-4-isopropyl-1-methylimidazol-2-yl]methoxy} ethyl acetate] | ≥ 0.5 µg/mL | 12.5 to 25 µg/mL | > 240 µM |  |  |  |  | 
9 | Cc1cc(C)cc([S+]([O-])c2c(C(C)C)nc(CO)n2C)c1 (centres unmarked) [Compound I-106, [5-(3,5-dimethylphenylsulfinyl)-4-isopropyl-1-methyl-1H-imidazol-2-yl]methanol] | 1 to 10 µg/mL (≈ 3.26 to 32.6 µM) | 100 µg/mL (≈ 326 µM) | > 326 µM |  |  |  |  | 
10 | CCCn1c(CO)nc(C(C)C)c1Sc1cccc(Cl)c1 [Compound I-29, [5-(3-chlorophenylthio)-4-isopropyl-1-n-propyl-1H-imidazol-2-yl]methanol] | 0.016 to 0.03 µg/mL (≈ 0.0492 to 0.0923 µM) | 12.5 µg/mL (≈ 38.5 µM) | 1.85 µM |  |  |  |  | 
11 | CCCn1c(COC(N)=O)nc(C(C)C)c1Sc1cccc(Cl)c1 [Compound I-54, 2-carbamoyloxymethyl-5-(3-chlorophenylthio)-4-isopropyl-1-n-propyl-1H-imidazole] |  | 12.5 µg/mL (≈ 34 µM) | 1.25 µM |  | 0.004 µg/mL (≈ 0.0109 µM) |  |  | 
12 | Cc1cc(C)cc([S+]([O-])c2c(C(C)C)nc(C)n2C)c1 (centres unmarked) [Compound I-104, 5-(3,5-dimethylphenylsulfinyl)-4-isopropyl-1,2-dimethyl-1H-imidazole] | 1 to 10 µg/mL (≈ 3.44 to 34.4 µM) | 10 to 100 µg/mL (≈ 34.4 to 344 µM) | > 344 µM |  |  |  |  | 
13 | Cc1nc(C(C)C)c(Sc2cc(Cl)cc(Cl)c2)n1C [Compound I-1, 5-(3,5-dichlorophenylthio)-1,2-dimethyl-4-isopropyl-1H-imidazole] | 0.008 µg/mL (≈ 0.0254 µM) | 6.3 to 12.5 µg/mL (≈ 20 to 39.6 µM) | 3.81 µM |  |  |  |  | 
14 | CC(Cn1c(COC(N)=O)nc(C(C)C)c1Sc1cc(Cl)cc(Cl)c1)OC(N)=O (centres unmarked) [Compound I-152, 2-carbamoyloxymethyl-1-(2-carbamoyloxypropyl)-5-(3,5-dichlorophenylthio)-4-isopropyl-1H-imidazole] | < 0.008 µg/mL |  | 3.25 µM | 12.5 to 25 µg/mL (≈ 27.1 to 54.2 µM) |  |  |  | 
15 | CCn1c(CCOC(N)=O)nc(C(C)C)c1Sc1cc(Cl)cc(Cl)c1 [Compound I-137, 2-(2-carbamoyloxyethyl)-5-(3,5-dichlorophenylthio)-1-ethyl-4-isopropyl-1H-imidazole] |  |  | 8.2 µM | 50 µg/mL (≈ 124 µM) | 0.004 to 0.008 µg/mL (≈ 0.00994 to 0.0199 µM) |  |  | 
16 | CC(C)c1nc(CNCCO)n(C)c1Sc1cc(Cl)cc(Cl)c1 [Compound I-79, 2-{[5-(3,5-dichlorophenylthio)-4-isopropyl-1-methyl-1H-imidazol-2-yl]methylamino} ethanol] | 0.25 µg/mL (≈ 0.668 µM) | 1 to 10 µg/mL (≈ 2.67 to 26.7 µM) | 34.5 µM |  |  |  |  | 
17 | CC(C)c1nc(COC(N)=O)n(CCCc2ccccn2)c1Sc1cc(Cl)cc(Cl)c1 [Compound I-130, 2-carbamoyloxymethyl-5-(3,5-dichlorophenylthio)-4-isopropyl-1-(3-(2-pyridyl)propyl)-1H-imidazole] | < 0.008 µg/mL |  | 3.96 µM | 6.3 to 12.5 µg/mL (≈ 13.1 to 26.1 µM) |  |  |  | 
18 | CC(C)c1nc(CCOCc2ccccc2)n(C)c1Sc1cc(Cl)cc(Cl)c1 [Compound I-136, 2-(2-benzyloxyethyl)-5-(3,5-dichlorophenylthio)-4-isopropyl-1-methyl-1H-imidazole] | 0.008 to 0.016 µg/mL (≈ 0.0184 to 0.0367 µM) |  |  | 12.5 µg/mL (≈ 28.7 µM) |  | 4.59 µM |  | 
19 | CC(C)c1nc(CC#N)n(C)c1Sc1cc(Cl)cc(Cl)c1 [Compound I-80a, [5-(3,5-dichlorophenylthio)-4-isopropyl-1-methyl-1H-imidazol-2-yl]acetonitrile] | 0.002 to 0.004 µg/mL (≈ 0.00588 to 0.0118 µM) | 100 µg/mL (≈ 294 µM) | 0.323 µM |  |  |  |  | 
20 | C=CCn1c(CO)nc(C(C)C)c1Sc1cc(Cl)cc(Cl)c1 [Compound I-19, [1-allyl-5-(3,5-dichlorophenylthio)-4-isopropyl-1H-imidazol-2-yl]methanol] |  | 10 to 100 µg/mL (≈ 28 to 280 µM) | 2.02 µM |  | 0.004 to 0.008 µg/mL (≈ 0.0112 to 0.0224 µM) |  |  | 
21 | Cc1nc(C(C)C(=O)O)c(Sc2cccc(Cl)c2)n1C (centres unmarked) [Compound I-99] | 6.3 µg/mL (≈ 20.3 µM) | > 100 µg/mL | > 322 µM |  |  |  |  | 
22 | CC(C)c1nc(CCO)n(Cc2ccc(N)cc2)c1Sc1cc(Cl)cc(Cl)c1 [Compound I-139, 1-(p-aminobenzyl)-5-(3,5-dichlorophenylthio)-2-hydroxyethyl-4-isopropyl-1H-imidazole] | < 0.008 µg/mL |  | 3.67 µM | 6.3 µg/mL (≈ 14.4 µM) |  |  |  | 
23 | CC(C)c1nc(CN)n(C)c1Cc1cc(Cl)cc(Cl)c1 [Compound I-101, 2-aminomethyl-5-(3,5-dichlorobenzyl)-4-isopropyl-1-methyl-1H-imidazole] | 1 µg/mL (≈ 3.2 µM) | 10 to 100 µg/mL (≈ 32 to 320 µM) | 80.7 µM |  |  |  |  | 
24 | 2-aminoethyl-1-n-butyl-5-(3,5-dichlorophenylthio)-4-isopropyl-1H-imidazole [Compound I-68] |  |  |  |  |  |  | 0.016 µg/mL | 0.61 µg/mL

Source: patent US6147097A, “Imidazole derivatives as anti-HIV agents” (Shionogi & Co., Ltd., priority 1994, dated 2000)
